Measurements reported in patent publication US20210369853A1, “TARGETED PROTEASE DEGRADATION PLATFORM” (EUBULUS BIOTHERAPEUTICS INC., priority 2018, published 2021).
Where two headings read alike, the source gives them in different places.

What was measured:
Assay type in all cases: cell-based
[1] = system: Human Colon Cancer HCT-116; assay: Cell proliferation experiment (Alarm blue, 72 h, EC50); settings: Homo sapiens, HCT-116; HCT116 cells
How it was run: (§1)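 Log-phase cells, passaged at least 2 generations, were seeded in 96-well plates and exposed to test compound in complete medium as a 5-fold dilution series in duplicate for 72 h. Fluorescence was read by Alamar blue and EC50 fitted to a four-parameter curve (Min, Max, Slope).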

[2] = system: Human Monocytic Leukemia MV4-11; assay: as above; settings: Homo sapiens, MV4-11, MV4;11 cells
How it was run: as §1

[3] = molecular target: T1, BRD4 (Homo sapiens, UniProt O60885); assay: Western blot, protein degradation (DC50); settings: 6 h, read-out: BRD4 DC50 (6 h)
T1 construct: endogenous in cells
Description: (§2) Cells were treated with the compound for a period of time, after that the cells were collected by centrifugation. After washing with PBS, the cells were lysed by adding RIPA buffer; the cell lysate were added to the loading buffer and then appropriate volume were taken and slowly added to the corresponding wells of the gel plate, and run the SDS-PAGE gel (4%-12%). After running the gel, transferred to the PVDF membrane and sealed with 5% skimmed milk powder at room temperature for 1 hour. The membrane was placed in the primary antibody diluted with 5% skimmed milk powder and shaked slowly overnight at 4° C. After incubation with primary antibody, the membrane was washed 3 times using a TBST shaker; added secondary antibody diluted with 5% skimmed milk powder corresponding to the primary antibody, and shaked slowly at room temperature for 1 hour. After incubation with secondary antibody, the membrane was washed 3 times using the TBST shaker again. The PVDF membrane was flatted in the cassette, the strip was evenly infiltrated with ECL developer solution, and placed in ChemDoc XRS+ gel imager for taking pictures. The intensity of protein bands was analyzed quantitatively using ImageJ software.

[4] = molecular target: T2, PLK1 (Homo sapiens, UniProt P53350); assay: Western blot, protein degradation (DC50); settings: 6 h, read-out: PLK1 DC50 (6 h)
T2 construct: endogenous in cells
T2 sequence (P53350 whole entry): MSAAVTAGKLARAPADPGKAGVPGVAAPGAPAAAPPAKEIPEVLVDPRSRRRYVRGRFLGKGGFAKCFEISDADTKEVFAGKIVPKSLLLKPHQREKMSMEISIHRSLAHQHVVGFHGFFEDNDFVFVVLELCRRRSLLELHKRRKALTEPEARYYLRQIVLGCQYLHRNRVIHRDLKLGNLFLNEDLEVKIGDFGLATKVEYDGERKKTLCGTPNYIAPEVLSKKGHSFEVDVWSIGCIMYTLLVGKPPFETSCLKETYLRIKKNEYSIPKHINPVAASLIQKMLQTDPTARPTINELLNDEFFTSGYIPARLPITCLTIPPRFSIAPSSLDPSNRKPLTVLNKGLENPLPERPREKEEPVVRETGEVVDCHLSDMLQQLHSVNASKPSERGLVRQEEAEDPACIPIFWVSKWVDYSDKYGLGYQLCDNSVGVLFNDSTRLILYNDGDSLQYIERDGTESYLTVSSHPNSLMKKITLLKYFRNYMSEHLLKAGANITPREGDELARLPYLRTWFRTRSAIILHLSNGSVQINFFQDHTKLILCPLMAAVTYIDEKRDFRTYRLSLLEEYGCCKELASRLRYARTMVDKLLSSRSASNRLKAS
Description: as §2

| Structure (SMILES) | EC50 [1] | EC50 [2] | DC50 ([3]; western blot) | DC50 ([4]; western blot) | DC50 [3] | DC50 [4] |
| --- | --- | --- | --- | --- | --- | --- |
| O=C1CCC(N2Cc3c(NC(=O)COCCOCCOCCOCCNC(=O)c4ccc(Nc5ncc6c(n5)-c5ccc(Cl)cc5C(c5c(F)cccc5F)=NC6)cc4)cccc3C2=O)C(=O)N1 (centres unmarked) [UB-180534] | > 1 µM | 0.01 to 0.1 µM | – | – | – | – |
| O=C1CCC(N2Cc3c(NC(=O)COCCOCCNC(=O)c4ccc(Nc5ncc6c(n5)-c5ccc(Cl)cc5C(c5c(F)cccc5F)=NC6)cc4)cccc3C2=O)C(=O)N1 (centres unmarked) [UB-180559] | > 1 µM | 0.1 to 1 µM | – | – | – | – |
| CC[C@@H]1C(=O)N(C)c2cnc(Nc3ccc(C(=O)NCCNc4cccc5c4CN(C4CCC(=O)NC4=O)C5=O)cc3OC)nc2N1C1CCCC1 (some centres unmarked) [UB-180567] | – | 0.01 to 0.1 µM | > 1 µM | > 1 µM | – | – |
| O=C1CCC(N2Cc3c(NC(=O)COCCOCCNC(=O)[C@]4(Cc5cccc(Nc6nccs6)n5)CC[C@@H](Oc5cccc(Cl)c5F)CC4)cccc3C2=O)C(=O)N1 (some centres unmarked) [UB-180572] | > 1 µM | > 1 µM | – | – | – | – |
| O=C1CCC(N2Cc3c(NC(=O)COCCOCCOCCNC(=O)[C@]4(Cc5cccc(Nc6nccs6)n5)CC[C@@H](Oc5cccc(Cl)c5F)CC4)cccc3C2=O)C(=O)N1 (some centres unmarked) [UB-180573] | > 1 µM | > 1 µM | – | – | – | – |
| O=C1CCC(N2Cc3c(NC(=O)CCCNC(=O)[C@]4(Cc5cccc(Nc6nccs6)n5)CC[C@@H](Oc5cccc(Cl)c5F)CC4)cccc3C2=O)C(=O)N1 (some centres unmarked) [UB-180574] | > 1 µM | > 1 µM | – | – | – | – |
| O=C1CCC(N2Cc3c(NC(=O)CCOCCOCCOCCOCCNC(=O)[C@]4(Cc5cccc(Nc6nccs6)n5)CC[C@@H](Oc5cccc(Cl)c5F)CC4)cccc3C2=O)C(=O)N1 (some centres unmarked) [UB-180575] | > 1 µM | 0.01 to 0.1 µM | – | – | – | – |
| O=C1CCC(N2Cc3c(NC(=O)COCCNC(=O)[C@]4(Cc5cccc(Nc6nccs6)n5)CC[C@@H](Oc5cccc(Cl)c5F)CC4)cccc3C2=O)C(=O)N1 (some centres unmarked) [UB-180577] | > 1 µM | > 1 µM | – | – | – | – |
| CC[C@@H]1C(=O)N(C)c2cnc(Nc3ccc(C(=O)NCCCNc4cccc5c4C(=O)N(C4CCC(=O)NC4=O)C5=O)cc3OC)nc2N1C1CCCC1 (some centres unmarked) [UB-180579] | – | 0.01 to 0.1 µM | – | – | 0.1 to 1 µM | 0.1 to 1 µM |

Next, values leading:

| EC50 [1] | EC50 [2] | DC50 ([3]; western blot) | DC50 ([4]; western blot) | DC50 [3] | DC50 [4] | Structure (SMILES) |
| --- | --- | --- | --- | --- | --- | --- |
| > 1 µM | 0.01 to 0.1 µM | – | – | – | – | O=C1CCC(N2Cc3c(NC(=O)COCCOCCOCCOCCNC(=O)[C@]4(Cc5cccc(Nc6nccs6)n5)CC[C@@H](Oc5cccc(Cl)c5F)CC4)cccc3C2=O)C(=O)N1 (some centres unmarked) [UB-180582] |
| > 1 µM | > 1 µM | – | – | – | – | O=C1CCC(N2Cc3c(NC(=O)COCCCCNC(=O)[C@]4(Cc5cccc(Nc6nccs6)n5)CC[C@@H](Oc5cccc(Cl)c5F)CC4)cccc3C2=O)C(=O)N1 (some centres unmarked) [UB-180586] |
| > 1 µM | > 1 µM | – | – | – | – | O=C1CCC(N2Cc3c(NC(=O)COCCCNC(=O)[C@]4(Cc5cccc(Nc6nccs6)n5)CC[C@@H](Oc5cccc(Cl)c5F)CC4)cccc3C2=O)C(=O)N1 (some centres unmarked) [UB-180588] |
| > 1 µM | > 1 µM | – | – | – | – | O=C1CCC(N2Cc3c(NC(=O)CCOCCOCCNC(=O)[C@]4(Cc5cccc(Nc6nccs6)n5)CC[C@@H](Oc5cccc(Cl)c5F)CC4)cccc3C2=O)C(=O)N1 (some centres unmarked) [UB-180590] |
| – | – | – | – | > 1 µM | > 1 µM | CC[C@@H]1c2c(C#N)ncn2-c2cnc(Nc3ccc(C(=O)NCCOCCOCCOCC(=O)Nc4cccc5c4C(=O)N(C4CCC(=O)NC4=O)C5=O)cc3OC)nc2N1Cc1ccc(Br)cc1 (some centres unmarked) [UB-180594] |
| – | – | – | – | > 1 µM | > 1 µM | CC[C@@H]1C(=O)N(C)c2cnc(Nc3ccc(C(=O)NCCOCCOCCOCC(=O)N[C@H](C(=O)N4C[C@H](O)C[C@H]4C(=O)NCc4ccc(-c5scnc5C)cc4)C(C)(C)C)cc3OC)nc2N1Cc1ccc(Br)cc1 [UB-180601] |
| – | – | – | – | > 1 µM | > 1 µM | CC[C@@H]1C(=O)N(C)c2cnc(Nc3ccc(C(=O)NCCOCCOCCOCCC(=O)N[C@H](C(=O)N4C[C@H](O)C[C@H]4C(=O)NCc4ccc(-c5scnc5C)cc4)C(C)(C)C)cc3OC)nc2N1Cc1ccc(Br)cc1 [UB-180602] |
| > 1 µM | 0.01 to 0.1 µM | – | – | – | – | O=C1CCC(N2Cc3c(NC(=O)CCOCCCOCCOCCNC(=O)c4ccc(Nc5ncc6c(n5)-c5ccc(Cl)cc5C(c5c(F)cccc5F)=NC6)cc4)cccc3C2=O)C(=O)N1 (centres unmarked) [UB-180610] |
| > 1 µM | 0.01 to 0.1 µM | – | – | – | – | O=C1CCC(N2Cc3c(NC(=O)CCOCCCOCCOCCNC(=O)[C@]4(Cc5cccc(Nc6nccs6)n5)CC[C@@H](Oc5cccc(Cl)c5F)CC4)cccc3C2=O)C(=O)N1 (some centres unmarked) [UB-180611] |
